Results as given in the supplement of paper PMC10307832.

Key:
Test in all cases: relative viability (nuclei count vs DMSO), 5 days (fraction); higher = more cells survive
Bortezomib + Luminespib = compound: CC(C)C[C@H](NC(=O)[C@H](Cc1ccccc1)NC(=O)c1cnccn1)B(O)O [Bortezomib] + CCNC(=O)c1noc(-c2cc(C(C)C)c(O)cc2O)c1-c1ccc(CN2CCOCC2)cc1 [Luminespib] (partner 0.01 µM)
In short: (§1)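 Lung cancer cell lines were pin-tool dosed in 1536-well plates on the day after seeding, with either a lone drug or a fixed anchor-drug dose plus five library-drug doses (not always all listed) in √10 steps. Nuclei were counted on 4× images after 5 days. Relative viability is the ratio of treated-well to vehicle-well nuclei counts, with each value a median of duplicate plates.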

Bortezomib + Lapatinib = compound: CC(C)C[C@H](NC(=O)[C@H](Cc1ccccc1)NC(=O)c1cnccn1)B(O)O [Bortezomib] + CS(=O)(=O)CCNCc1ccc(-c2ccc3ncnc(Nc4ccc(OCc5cccc(F)c5)c(Cl)c4)c3c2)o1 [Lapatinib] (partner 2 µM)
In short: as §1

[1] = compound: CC1=CC(=NN1)NC2=CC(=NC(=N2)/C=C/C3=CC=CC=C3)N4CCN(CC4)C + Cc1nc(Nc2ncc(C(=O)Nc3c(C)cccc3Cl)s2)cc(N2CCN(CCO)CC2)n1 [Dasatinib] (partner 0.075 µM)
In short: as §1

[2] = compound: CC1=CC(=NN1)NC2=CC(=NC(=N2)/C=C/C3=CC=CC=C3)N4CCN(CC4)C + Nc1ncn([C@H]2C[C@H](O)[C@@H](CO)O2)c(=O)n1 [Decitabine] (partner 2 µM)
In short: as §1

Row | Cell Line | relative viability (Bortezomib + Luminespib; first compound 0.0002 µM) | relative viability (Bortezomib + Luminespib; first compound 0.000632 µM) | relative viability (Bortezomib + Luminespib; first compound 0.002 µM) | relative viability (Bortezomib + Luminespib; first compound 0.006325 µM) | relative viability (Bortezomib + Luminespib; first compound 0.02 µM) | relative viability (Bortezomib + Lapatinib; first compound 0.0002 µM) | relative viability (Bortezomib + Lapatinib; first compound 0.000632 µM) | relative viability (Bortezomib + Lapatinib; first compound 0.002 µM) | relative viability (Bortezomib + Lapatinib; first compound 0.006325 µM) | relative viability (Bortezomib + Lapatinib; first compound 0.02 µM) | relative viability ([1]; first compound 0.08 µM) | relative viability ([1]; first compound 0.253 µM) | relative viability ([1]; first compound 0.8 µM) | relative viability ([1]; first compound 2.53 µM) | relative viability ([1]; first compound 8 µM) | relative viability ([2]; first compound 0.08 µM) | relative viability ([2]; first compound 0.253 µM) | relative viability ([2]; first compound 0.8 µM) | relative viability ([2]; first compound 2.53 µM) | relative viability ([2]; first compound 8 µM)
1 | LCLC-97TM1 | 0.674 | 0.756 | 0.687 | 0.123 | 0.139 | 0.651 | 0.701 | 0.749 | 0.248 | 0.118 | 0.867 | 0.724 | 0.885 | 0.622 | 0.552 | 0.176 | 0.22 | 0.244 | 0.182 | 0.0703
2 | LK-2 | 0.182 | 0.186 | 0.238 | 0.182 | 0.172 | 0.804 | 0.922 | 0.498 | 0.204 | 0.232 | 0.242 | 0.246 | 0.226 | 0.139 | 0.0998 | 0.215 | 0.327 | 0.274 | 0.175 | 0.0787
3 | LOU-NH91 | 0.352 | 0.312 | 0.279 | 0.252 | 0.231 | 0.795 | 0.704 | 0.454 | 0.334 | 0.287 | 0.576 | 0.614 | 0.61 | 0.448 | 0.302 | 0.793 | 0.856 | 0.807 | 0.809 | 0.473
4 | LU99A | 0.227 | 0.178 | 0.231 | 0.24 | 0.184 | 0.939 |  | 1.11 | 0.811 | 0.171 | 0.546 | 0.547 | 0.475 | 0.22 | 0.146 | 0.86 | 0.892 | 0.73 | 0.409 | 0.214
5 | LXF-289 | 0.68 | 0.598 | 0.639 | 0.138 | 0.074 | 0.908 | 0.871 | 0.949 | 0.115 | 0.104 | 0.258 | 0.26 | 0.187 | 0.0576 | 0.0234 | 0.371 | 0.383 | 0.324 | 0.288 | 0.248
6 | NCI-H23 | 0.224 | 0.208 | 0.208 | 0.18 | 0.169 |  | 0.866 | 1.06 | 0.156 | 0.135 | 0.769 | 0.764 | 0.815 | 0.683 | 0.137 | 0.302 | 0.326 | 0.29 | 0.177 | 0.141
7 | NCI-H322M | 0.736 |  | 0.729 | 0.386 | 0.322 | 0.573 |  | 0.523 | 0.541 | 0.393 | 0.268 | 0.254 | 0.228 | 0.206 | 0.209 | 0.82 | 0.719 | 0.675 | 0.587 | 0.298
8 | NCI-H358 | 0.285 |  | 0.349 | 0.307 | 0.0995 | 0.367 | 0.431 | 0.43 | 0.144 | 0.155 | 0.171 | 0.23 | 0.173 | 0.08 | 0.0626 | 0.227 | 0.188 | 0.184 | 0.0835 | 0.0684
9 | NCI-H460 | 0.0335 | 0.0348 | 0.033 | 0.0295 | 0.0196 | 0.879 | 0.975 | 1.03 | 0.0212 | 0.014 | 0.545 | 0.546 | 0.487 | 0.144 | 0.0157 | 0.531 | 0.522 | 0.466 | 0.0534 | 0.0287
10 | NCI-H520 | 0.223 | 0.234 | 0.237 | 0.211 | 0.217 | 0.91 | 0.857 | 0.271 | 0.108 | 0.128 | 0.202 | 0.194 | 0.166 | 0.143 | 0.118 | 0.382 | 0.542 | 0.501 | 0.191 | 0.14
11 | NCI-H596 | 0.942 | 0.73 | 0.609 | 0.244 | 0.2 | 0.947 | 1 | 0.99 | 0.245 | 0.264 | 0.638 | 0.522 | 0.536 | 0.357 | 0.216 | 1.17 | 1.01 | 0.889 | 0.659 | 0.364
12 | NCI-H647 | 0.198 | 0.294 | 0.136 | 0.0557 | 0.0467 | 1.05 | 1.05 | 0.711 | 0.0371 | 0.0208 | 0.185 | 0.186 | 0.2 | 0.0436 | 0.0226 | 0.32 | 0.429 | 0.36 | 0.121 | 0.122
13 | NCI-H661 | 0.928 | 0.858 | 0.921 | 0.4 | 0.151 | 0.458 | 0.512 | 0.406 | 0.297 | 0.18 | 0.824 | 0.808 | 0.853 | 0.243 | 0.237 | 0.551 | 0.529 | 0.524 | 0.302 | 0.249
14 | NCI-H727 | 0.374 | 0.321 | 0.358 | 0.382 | 0.279 | 0.654 | 0.872 | 0.864 | 0.229 | 0.113 | 0.372 |  | 0.407 | 0.257 | 0.186 | 0.515 | 0.699 | 0.882 | 0.793 | 0.412
15 | NCI-H838 | 0.428 | 0.302 | 0.264 | 0.124 | 0.103 | 0.897 | 0.982 | 0.936 | 0.121 | 0.114 | 0.3 | 0.279 | 0.247 | 0.255 | 0.141 | 0.487 | 0.416 | 0.384 | 0.208 | 0.141
16 | NCI-H1355 | 0.668 | 0.657 | 0.645 | 0.233 | 0.167 | 0.948 | 0.906 | 1.2 | 0.6 | 0.134 | 0.723 | 0.727 | 0.684 | 0.248 | 0.121 | 0.305 | 0.346 | 0.351 | 0.356 | 0.201
